Patent US20110021786A1, “Pharmaceutical Solutions, Process of Preparation and Therapeutic Uses” (UCB PHARMA, S.A., priority 2008, published 2011)
Where two headings read alike, the source gives them in different places.

Legend:
[1] = stability test of seletracetam solutions at different pH; type: physicochemical
Protocol: Solutions at different pH are prepared (natural pH (not buffered) and pH 4.5, 5.0, 5.5, 6.0. The pH is controlled by means of an adequate buffer in order to obtain the wished pH (in the example: 50 mM acetate).
(§1) The solution is dispensed in 1.5 ml sealed glass vials.
(§2) A stability test is performed at 25° C., 40° C., 60° C. and 80° C.
The pH of the various solutions is measured at the beginning of the test and after 2 weeks, 4 weeks, and 10 weeks. The amounts of degradation products in the seletracetam solutions are dosed in the various solutions.

[2] = target: T1, Levetiracetam Binding Site (LBS) (Rattus norvegicus, UniProt Q02563); test: LBS binding assay; parameters: species or system Sprague-Dawley rats
T1 construct: from tissue; host or cells: rat cerebral cortex crude membranes (male Sprague-Dawley)
Protocol: [LBS stands for Levetiracetam Binding Site cf. M. Noyer et al., Eur. J. Pharmacol., 286 (1995) 137-146.]
The inhibition constant (Ki) of a compound is determined in competitive binding experiments by measuring the binding of a single concentration of a radioactive ligand at equilibrium with various concentrations of the unlabeled test substance. The concentration of the test substance inhibiting 50% of the specific binding of the radioligand is called the IC50. The equilibrium dissociation constant Ki is proportional to the IC50 and is calculated using the equation of Cheng and Prusoff (Cheng Y. et al., Biochem. Pharmacol. […], 22, 3099-3108).
The concentration range usually encompasses 6 log units with variable steps (0.3 to 0.5 log). Assays are performed in mono- or duplicate, each Ki determination is performed on two different samples of test substance. […]
Membranes (150-200 μg of protein/assay) are incubated at 4° C. for 120 min in 0.5 ml of a 50 mmol/l Tris-HCl buffer (pH 7.4) containing 2 mmol/l MgCl2, 1 to 2 10^−9 mol/l of [^3H]-2-[4-(3-azidophenyl)-2-oxo-1-pyrrolidinyl]butanamide and increasing concentrations of the test substance. […] The radioactivity trapped onto the filters is counted by liquid scintillation in a β-counter (Tri-Carb 1900 or TopCount 9206, Camberra Packard, Belgium, or any other equivalent counter). […]

[3] = test system: audiogenic seizures in sound-susceptible mice; test: animal model of sound-susceptible mice; type: in vivo; conditions: Mus musculus, ip; intraperitoneally 60 minutes before induction of audiogenic seizures; dose producing 50% protection
Text: The objective of this test is to evaluate the anticonvulsant potency of a compound in sound-susceptible mice, a genetic animal model with reflex seizures. In this model of primary generalised epilepsy, seizures are evoked without electrical or chemical stimulation and the seizure types are, at least in part, similar in their clinical phenomenology to seizures occurring in man (Löscher W. 85 Schmidt D., Epilepsy Res. (1998), 2, 145-181; Buchhalter J. R., Epilepsia (1993), 34, S31-S41).
Male or female genetically sound-sensitive mice (14-28 g; N=10), derived from a DBA strain originally selected by Dr. Lehmann of the Laboratory of Acoustic Physiology (Paris) and bred in the UCB Pharma Sector husbandry unit since 1978, are used. The experimental design consisted of several groups, one group receiving the vehicle control and the other groups different doses of the test-compound. The compounds are administered intraperitoneally 60 minutes before the induction of audiogenic seizures.
For testing, the animals are placed in small cages, one mouse per cage, in a sound-attenuated chamber. […] During this interval, the mice are observed and the presence of the 3 phases of the seizure activity namely wild running, clonic and tonic convulsions, is recorded. The proportion of mice protected against wild running, clonic and tonic convulsions, respectively, is calculated. […]

[4] = stability test of brivaracetam solutions at different pH; type: physicochemical
Protocol: Solutions at different pH are prepared (natural pH (not buffered) and pH 4.5, 5.0, 5.5, 6.0. The pH is controlled by means of an adequate buffer in order to obtain the wished pH (in the example by 50 mM citrate).
as §1, §2
The pH of the various solutions is measured at the beginning of the test and after 2 weeks, 4 weeks, and 10 weeks. The amounts of degradation products in the brivaracetam solutions are dosed in the various solutions.

[5] = bioavailability and safety of an intravenous formulation of brivaracetam; type: in vivo, healthy subjects
Protocol: A first step of the study done in a 3-way crossover in 24 healthy subjects (12 females, 12 males) compares the single-dose bioavailability of brivaracetam 10 mg oral tablets versus brivaracetam 10 mg administered as a 15 minute intravenous infusion, and as an IV bolus. In a second step, a single-dose escalation study (25 mg, 50 mg, 100 mg and 150 mg) is performed in 4 consecutive groups of 6 subjects (3 females, 3 males) to gain information and as a fast IV bolus, to assess the pharmacokinetics of brivaracetam at these dosing regimens and to explore dose proportionality.

[6] = solution having a pH range of 5.0 and 6.0
[7] = solution in the range of pH of 4.5 and 6.5
[8] = 10 mg IV infusion or IV bolus versus 10 mg oral tablet, fully contained within the bioequivalence range

T1 sequence (Q02563 whole entry): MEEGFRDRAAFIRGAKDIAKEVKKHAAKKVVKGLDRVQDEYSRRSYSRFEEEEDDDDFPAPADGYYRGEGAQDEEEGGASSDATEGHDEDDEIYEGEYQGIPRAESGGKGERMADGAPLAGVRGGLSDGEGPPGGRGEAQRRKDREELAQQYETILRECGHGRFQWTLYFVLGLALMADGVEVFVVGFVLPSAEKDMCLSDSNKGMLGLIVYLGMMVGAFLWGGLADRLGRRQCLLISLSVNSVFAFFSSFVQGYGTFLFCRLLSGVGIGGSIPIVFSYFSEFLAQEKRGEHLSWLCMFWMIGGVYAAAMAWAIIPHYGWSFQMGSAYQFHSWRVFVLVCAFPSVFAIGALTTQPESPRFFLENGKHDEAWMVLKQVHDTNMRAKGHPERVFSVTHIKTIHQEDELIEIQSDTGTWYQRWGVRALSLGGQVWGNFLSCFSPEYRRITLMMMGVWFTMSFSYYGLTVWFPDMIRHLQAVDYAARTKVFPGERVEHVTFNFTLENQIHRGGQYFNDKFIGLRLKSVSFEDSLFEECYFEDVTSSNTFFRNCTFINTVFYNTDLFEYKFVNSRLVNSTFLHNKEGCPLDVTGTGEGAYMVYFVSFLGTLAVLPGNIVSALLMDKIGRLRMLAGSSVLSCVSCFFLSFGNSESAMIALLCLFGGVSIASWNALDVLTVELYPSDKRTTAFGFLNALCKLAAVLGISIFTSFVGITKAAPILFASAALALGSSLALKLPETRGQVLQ

| SMILES | degradation rate [1, 6] | stability of solution [1, 7] | Ki ([2]; rat cerebral cortex membranes, [3H]-2-[4-(3-azidophenyl)-2-oxo-1-pyrrolidinyl]butanamide radioligand, read-out: pKi (converted)) [nM] | ED50 [3] [µmol/kg] | degradation rate [4, 6] | stability of solution [4, 7] | Ki [2] [nM] | 90% confidence intervals of geometric ratios of AUC [5, 8] | 90% confidence intervals of geometric ratios of Cmax [5, 8] | bioequivalence to single dose of brivaracetam 10 mg oral tablet ([5]; 10 mg via 15-minute IV infusion, healthy subjects) | bioequivalence to single dose of brivaracetam 10 mg oral tablet ([5]; 10 mg via IV bolus, healthy subjects) | pharmacokinetic parameters after IV infusion and IV bolus ([5]; IV infusion compared with IV bolus) | extent of exposure versus dose ([5]; dose range 25-150 mg) | safety and tolerability ([5]; from 25 mg to 150 mg as IV infusion or IV bolus, healthy subjects) |
| --- | --- | --- | --- | --- | --- | --- | --- | --- | --- | --- | --- | --- | --- | --- |
| CC[C@@H](C(N)=O)N1C[C@H](C=C(F)F)CC1=O [Seletracetam, (2S)-2-[(4S)-4-(2,2-difluorovinyl)-2-oxo-pyrrolidin-1-yl]butanamide] | lowest | stable | ≤ 1000 | ≤ 100 | – | – | – | – | – | – | – | – | – | – |
| CCC[C@@H]1CC(=O)N([C@@H](CC)C(N)=O)C1 [Brivaracetam, (2S)-2-[(4R)-2-oxo-4-propyl-pyrrolidin-1-yl] butanamide] | – | – | – | ≤ 100 | lowest | stable | ≤ 1000 | 80-125% | 80-125% | bioequivalent | bioequivalent | similar | proportional to the administered dose | safe and well tolerated |
